According to ChEMBL document CHEMBL3352214, “Studies on indolizines. Evaluation of their biological properties as microtubule-interacting agents and as melanoma targeting compounds” (Eur J Med Chem, 2015):

Assays:
Ovis aries = species: Ovis aries; experiment: Inhibition of sheep brain tubulin polymerization at 100 uM by fluorescence assay
[1] = Inhibition of sheep brain tubulin polymerization by fluorescence assay; parameters: species or system Ovis aries
[2] = Growth inhibition of human MOLT4 cells at 10^-5 M after 48 hrs by SRB assay; assay type: functional; conditions: MOLT-4, 48 h, read-out: GI
HL-60(TB) [3] = experiment: Growth inhibition of human HL-60(TB) cells at 10^-5 M after 48 hrs by SRB assay; assay type: functional; conditions: HL-60, 48 h, read-out: GI
[4] = Growth inhibition of human HOP92 cells at 10^-5 M after 48 hrs by SRB assay; assay type: functional; conditions: HOP-92, 48 h, read-out: GI
[5] = Growth inhibition of human EKVX cells at 10^-5 M after 48 hrs by SRB assay; assay type: functional; conditions: read-out: GI
NCI-H522 [6] = experiment: Growth inhibition of human NCI-H522 cells at 10^-5 M after 48 hrs by SRB assay; assay type: functional; conditions: NCI-H522, 48 h, read-out: GI
[7] = Growth inhibition of human HCT116 cells at 10^-5 M after 48 hrs by SRB assay; assay type: functional; conditions: HCT-116, 48 h, read-out: GI
[8] = Growth inhibition of human HCT15 cells at 10^-5 M after 48 hrs by SRB assay; assay type: functional; conditions: HCT-15, 48 h, read-out: GI
MDA-MB-435 [9] = experiment: Growth inhibition of human MDA-MB-435 cells at 10^-5 M after 48 hrs by SRB assay; assay type: functional; conditions: MDA-MB-435, 48 h, read-out: GI
Malme-3M = experiment: Growth inhibition of human MALME-3M cells at 10^-5 M after 48 hrs by SRB assay; assay type: functional; conditions: read-out: GI
A498 [10] = experiment: Growth inhibition of human A498 cells at 10^-5 M after 48 hrs by SRB assay; assay type: functional; conditions: A498, 48 h, read-out: GI
CAKI-1 = experiment: Growth inhibition of human Caki1 cells at 10^-5 M after 48 hrs by SRB assay; assay type: functional; conditions: CAKI-1, 48 h, read-out: GI
[11] = Growth inhibition of human PC3 cells at 10^-5 M after 48 hrs by SRB assay; assay type: functional; conditions: PC-3, 48 h, read-out: GI
[12] = Growth inhibition of human SF295 cells at 10^-5 M after 48 hrs by SRB assay; assay type: functional; conditions: SF-295, 48 h, read-out: GI
SNB-75 [13] = experiment: Growth inhibition of human SNB75 cells at 10^-5 M after 48 hrs by SRB assay; assay type: functional; conditions: SNB-75, 48 h, read-out: GI
MCF7 [14] = experiment: Growth inhibition of human MCF7 cells at 10^-5 M after 48 hrs by SRB assay; assay type: functional; conditions: MCF7, 48 h, read-out: GI
T47D = experiment: Growth inhibition of human T47D cells at 10^-5 M after 48 hrs by SRB assay; assay type: functional; conditions: Homo sapiens, T47D, 48 h; read-out: GI
SNB-75 [15] = experiment: Cytotoxicity against human SNB75 cells assessed as cell growth at 10^-5 M after 48 hrs by SRB assay; assay type: functional; conditions: SNB-75, 48 h, read-out: Activity
HL-60(TB) [16] = experiment: Growth inhibition of human HL-60(TB) cells after 48 hrs by SRB assay; assay type: functional; conditions: HL-60, 48 h
K562 = experiment: Growth inhibition of human K562 cells after 48 hrs by SRB assay; assay type: functional; conditions: K562, 48 h
SR = experiment: Growth inhibition of human SR cells after 48 hrs by SRB assay; assay type: functional
NCI-H522 [17] = experiment: Growth inhibition of human NCI-H522 cells after 48 hrs by SRB assay; assay type: functional; conditions: NCI-H522, 48 h
[18] = Growth inhibition of human COLO205 cells after 48 hrs by SRB assay; assay type: functional; conditions: COLO 205, 48 h
KM12 = experiment: Growth inhibition of human KM12 cells after 48 hrs by SRB assay; assay type: functional; conditions: KM12, 48 h
HT-29 = experiment: Growth inhibition of human HT-29 cells after 48 hrs by SRB assay; assay type: functional; conditions: HT-29, 48 h
MDA-MB-435 [19] = experiment: Growth inhibition of human MDA-MB-435 cells after 48 hrs by SRB assay; assay type: functional; conditions: MDA-MB-435, 48 h
SK-MEL-5 = experiment: Growth inhibition of human SK-MEL-5 cells after 48 hrs by SRB assay; assay type: functional; conditions: SK-MEL-5, 48 h
[20] = Growth inhibition of human OVCAR3 cells after 48 hrs by SRB assay; assay type: functional; conditions: OVCAR-3, 48 h
NCI/ADR-RES = experiment: Growth inhibition of human NCI/ADR-RES cells after 48 hrs by SRB assay; assay type: functional
A498 [21] = experiment: Growth inhibition of human A498 cells after 48 hrs by SRB assay; assay type: functional; conditions: A498, 48 h
[22] = Growth inhibition of human PC3 cells after 48 hrs by SRB assay; assay type: functional; conditions: PC-3, 48 h
SNB-75 [23] = experiment: Growth inhibition of human SNB75 cells after 48 hrs by SRB assay; assay type: functional; conditions: SNB-75, 48 h
MDA-MB-468 = experiment: Growth inhibition of human MDA-MB-468 cells after 48 hrs by SRB assay; assay type: functional; conditions: MDA-MB-468, 48 h
MCF7 [24] = experiment: Growth inhibition of human MCF7 cells after 48 hrs by SRB assay; assay type: functional; conditions: MCF7, 48 h
HL-60(TB) [25] = experiment: Cytotoxicity against human HL-60(TB) cells assessed as cell growth at 10^-5 M after 48 hrs by SRB assay; assay type: functional; conditions: HL-60, 48 h, read-out: Activity
NCI-H522 [26] = experiment: Cytotoxicity against human NCI-H522 cells assessed as cell growth at 10^-5 M after 48 hrs by SRB assay; assay type: functional; conditions: NCI-H522, 48 h, read-out: Activity
MDA-MB-435 [27] = experiment: Cytotoxicity against human MDA-MB-435 cells assessed as cell growth at 10^-5 M after 48 hrs by SRB assay; assay type: functional; conditions: MDA-MB-435, 48 h, read-out: Activity
A498 [28] = experiment: Cytotoxicity against human A498 cells assessed as cell growth at 10^-5 M after 48 hrs by SRB assay; assay type: functional; conditions: A498, 48 h, read-out: Activity
SF-295 = experiment: Cytotoxicity against human SF295 cells assessed as cell growth at 10^-5 M after 48 hrs by SRB assay; assay type: functional; conditions: SF-295, 48 h, read-out: Activity

## CCOC(=O)c1c(C(=O)OCC)c2c(C)cc(C)cn2c1C(=O)c1cc(OC)c(OC)c(OC)c1
Ovis aries
  inhibition: 58%
[1]
  IC50: 93200 nM

## COC(=O)c1c(C(=O)OC)c2cc(N(C)C)ccn2c1C(=O)c1cc(OC)c(OC)c(OC)c1
Ovis aries
  inhibition: 15%
[2]
  inhibition of growth at 10 µM: 0%
HL-60(TB) [3]
  inhibition of growth at 10 µM: 26%
[4]
  inhibition of growth at 10 µM: 11%
[5]
  inhibition of growth at 10 µM: 0%
NCI-H522 [6]
  inhibition of growth at 10 µM: 3%
[7]
  inhibition of growth at 10 µM: 0%
[8]
  inhibition of growth at 10 µM: 7%
MDA-MB-435 [9]
  inhibition of growth at 10 µM: 4%
Malme-3M
  inhibition of growth at 10 µM: 0%
A498 [10]
  inhibition of growth at 10 µM: 18%
CAKI-1
  inhibition of growth at 10 µM: 19%
[11]
  inhibition of growth at 10 µM: 2%
[12]
  inhibition of growth at 10 µM: 11%
SNB-75 [13]
  inhibition of growth at 10 µM: 9%
MCF7 [14]
  inhibition of growth at 10 µM: 0%
T47D
  inhibition of growth at 10 µM: 5%

## COc1ccc(C(=O)c2cc(C#N)c3c(C)cc(C)cn23)cc1
Ovis aries
  inhibition: 27%
[2]
  inhibition of growth at 10 µM: 1%
HL-60(TB) [3]
  inhibition of growth at 10 µM: 0%
[4]
  inhibition of growth at 10 µM: 43%
NCI-H522 [6]
  inhibition of growth at 10 µM: 58%
[7]
  inhibition of growth at 10 µM: 80%
[8]
  inhibition of growth at 10 µM: 27%
MDA-MB-435 [9]
  inhibition of growth at 10 µM: 27%
Malme-3M
  inhibition of growth at 10 µM: 35%
A498 [10]
  inhibition of growth at 10 µM: 53%
CAKI-1
  inhibition of growth at 10 µM: 28%
[11]
  inhibition of growth at 10 µM: 38%
[12]
  inhibition of growth at 10 µM: 30%
SNB-75 [13]
  inhibition of growth at 10 µM: 100%
MCF7 [14]
  inhibition of growth at 10 µM: 46%
T47D
  inhibition of growth at 10 µM: 60%
SNB-75 [15]
  growth at 10 µM: -4%

## COC(=O)c1c(C(=O)OC)c2c(C)cc(C)cn2c1C(=O)c1ccc(OC)cc1
Ovis aries
  inhibition: 61%
[1]
  IC50: 81200 nM

## CCOC(=O)c1cc(C(=O)c2cc(OC)c(OC)c(OC)c2)n2c(C)cccc12
HL-60(TB) [16]
  GI50: 34 nM
K562
  GI50: 53 nM
SR
  GI50: 33 nM
NCI-H522 [17]
  GI50: 66 nM
[18]
  GI50: 108 nM
KM12
  GI50: 60 nM
HT-29
  GI50: 40 nM
MDA-MB-435 [19]
  GI50: 30 nM
SK-MEL-5
  GI50: 61 nM
[20]
  GI50: 40 nM
NCI/ADR-RES
  GI50: 65 nM
A498 [21]
  GI50: 52 nM
[22]
  GI50: 122 nM
SNB-75 [23]
  GI50: 121 nM
MDA-MB-468
  GI50: 111 nM
MCF7 [24]
  GI50: 56 nM
Ovis aries
  inhibition: 83%
[1]
  IC50: 8020 nM
[2]
  inhibition of growth at 10 µM: 96%
HL-60(TB) [3]
  inhibition of growth at 10 µM: 100%
[4]
  inhibition of growth at 10 µM: 26%
[5]
  inhibition of growth at 10 µM: 57%
NCI-H522 [6]
  inhibition of growth at 10 µM: 100%
[7]
  inhibition of growth at 10 µM: 91%
[8]
  inhibition of growth at 10 µM: 78%
MDA-MB-435 [9]
  inhibition of growth at 10 µM: 100%
Malme-3M
  inhibition of growth at 10 µM: 63%
A498 [10]
  inhibition of growth at 10 µM: 100%
CAKI-1
  inhibition of growth at 10 µM: 63%
[11]
  inhibition of growth at 10 µM: 77%
[12]
  inhibition of growth at 10 µM: 100%
SNB-75 [13]
  inhibition of growth at 10 µM: 88%
MCF7 [14]
  inhibition of growth at 10 µM: 86%
T47D
  inhibition of growth at 10 µM: 63%
HL-60(TB) [25]
  growth at 10 µM: -42%
NCI-H522 [26]
  growth at 10 µM: -32%
MDA-MB-435 [27]
  growth at 10 µM: -48%
A498 [28]
  growth at 10 µM: -3%
SF-295
  growth at 10 µM: -32%

## CCOC(=O)c1cc(C(=O)c2cc(OC)c(OC)c(OC)c2)n2cccc(C)c12
Ovis aries
  inhibition: 55%
[1]
  IC50: 98200 nM

## CCOC(=O)c1c(C(=O)OCC)c2cccc(C)n2c1C(=O)c1cc(OC)c(OC)c(OC)c1
Ovis aries
  inhibition: 58%
[1]
  IC50: 174000 nM
